Experimental data published in US10543212B2, “Substituted amines for treating cardiac diseases” (Cardurion Pharmaceuticals, LLC, priority 2017, dated 2020).

Molecular target: T1, Full-length, GST-tagged, human CaMKIIδ (Homo sapiens, UniProt Q13557)
T1 construct: Full-Length, Glutathione-S-Transferase(GST)-Tagged, Human CaMKIIδ was purchased from Carna Biosciences; purchased Carna Biosciences 02-111
Assay: CaMKIIδ binding assay (TR-FRET with BODIPY-labeled probe ligand)
Procedure, shortened: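 Compounds were tested as 4-fold, eight-point series for 1 hr at room temperature, and IC50 was obtained by logistic fitting against a 3 μM parent-compound control. Signal came from displacement of a 300 nM BODIPY ligand from 0.5 nM GST-CaMKIIδ, detected via Tb-anti-GST in calmodulin/Ca2+ (pH 7.6).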

[1] = Table 2, activity class for CaMKIIδ
[2] = Table 2, CaMKIIδ binding assay, activity given as class A/B/C
[3] = CaMKIIδ binding assay, activity class per Table 2
[4] = CaMKIIδ binding assay, results of Table 2

T1 sequence (Q13557 1-478 isoform Q13557-12): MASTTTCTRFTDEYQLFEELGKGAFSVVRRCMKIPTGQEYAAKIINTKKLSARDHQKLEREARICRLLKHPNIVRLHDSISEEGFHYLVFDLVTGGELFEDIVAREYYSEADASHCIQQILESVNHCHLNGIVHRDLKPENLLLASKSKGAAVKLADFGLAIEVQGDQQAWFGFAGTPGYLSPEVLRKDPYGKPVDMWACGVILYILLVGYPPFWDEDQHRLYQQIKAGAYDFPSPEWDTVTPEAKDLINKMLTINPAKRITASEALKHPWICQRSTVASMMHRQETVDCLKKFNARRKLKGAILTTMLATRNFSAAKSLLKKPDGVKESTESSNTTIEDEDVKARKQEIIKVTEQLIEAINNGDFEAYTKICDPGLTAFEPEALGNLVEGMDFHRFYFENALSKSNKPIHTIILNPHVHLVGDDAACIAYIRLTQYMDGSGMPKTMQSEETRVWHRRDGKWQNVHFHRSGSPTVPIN

CCn1cc(Nc2ncc(-c3ccc(Cl)c(O[C@@H](C)Cn4cnnn4)c3)cn2)c(C(F)(F)F)n1 [Example 674, (S)-5-(3-((1-(1H-tetrazol-1-yl)propan-2-yl)oxy)-4-chlorophenyl)-N-(1-ethyl-3-(trifluoromethyl)-1H-pyrazol-4-yl)pyrimidin-2-amine]
IC50 [1]: 10 to 100 nM

C[C@@H](Cn1cnnn1)Oc1cc(-c2cnc(Nc3cn([C@H]4CC[C@@H](N5CC6(COC6)C5)CC4)nc3C(F)(F)F)nc2)ccc1Cl [Example 823, 5-(3-(((S)-1-(1H-tetrazol-1-yl)propan-2-yl)oxy)-4-chlorophenyl)-N-(1-(cis-4-(2-oxa-6-azaspiro[3.3]heptan-6-yl)cyclohexyl)-3-(trifluoromethyl)-1H-pyrazol-4-yl)pyrimidin-2-amine]
IC50 [2]: < 10 nM

C[C@@H](Cn1cnnn1)Oc1cc(-c2cnc(Nc3n[nH]cc3Cl)nc2)ccc1Cl [Example 749, (S)-5-(3-((1-(1H-tetrazol-1-yl)propan-2-yl)oxy)-4-chlorophenyl)-N-(4-chloro-1H-pyrazol-3-yl)pyrimidin-2-amine]
IC50 [2]: 10 to 100 nM

C[C@@H](Cn1cnnn1)Oc1cc(-c2cnc(Nc3cn(C4CC5(C4)CN(C4CCOCC4)C5)nc3C(F)(F)C(F)(F)F)nc2)ccc1Cl [Example 959, (S)-5-(3-((1-(1H-tetrazol-1-yl)propan-2-yl)oxy)-4-chlorophenyl)-N-(3-(perfluoroethyl)-1-(2-(tetrahydro-2H-pyran-4-yl)-2-azaspiro[3.3]heptan-6-yl)-1H-pyrazol-4-yl)pyrimidin-2-amine]
IC50 [3]: < 10 nM

C[C@@H](Cn1cnnn1)Oc1cc(-c2cnc(Nc3cn(C)nc3OCC(F)(F)F)nc2)ccc1C#N [Example 765, (S)-2-((1-(1H-tetrazol-1-yl)propan-2-yl)oxy)-4-(2-((1-methyl-3-(2,2,2-trifluoroethoxy)-1H-pyrazol-4-yl)amino)pyrimidin-5-yl)benzonitrile]
IC50 [2]: < 10 nM

C[C@@H](Cn1cnnn1)Oc1cc(-c2cnc(Nc3cn(CC4CNC4)nc3C(F)(F)F)nc2)ccc1Cl [Example 597, (S)-5-(3-((1-(1H-tetrazol-1-yl)propan-2-yl)oxy)-4-chlorophenyl)-N-(1-(azetidin-3-ylmethyl)-3-(trifluoromethyl)-1H-pyrazol-4-yl)pyrimidin-2-amine]
IC50 [1]: < 10 nM

C[C@@H](Cn1cnnn1)Oc1cc(-c2cnc(Nc3cn(CC4CN(C(=O)OC(C)(C)C)C4)nc3C(F)(F)F)nc2)ccc1Cl [Example 596, tert-butyl (S)-3-((4-((5-(3-((1-(1H-tetrazol-1-yl)propan-2-yl)oxy)-4-chlorophenyl)pyrimidin-2-yl)amino)-3-(trifluoromethyl) -1H-pyrazol-1-yl)methyl)azetidine-1-carboxylate]
IC50 [1]: ≥ 100 nM

C[C@@H](Cn1cnnn1)Oc1cc(-c2cnc(Nc3cc4c(cc3Cl)CCNCC4)nc2)ccc1C#N [Example 527, (S)-2-((1-(1H-tetrazol-1-yl)propan-2-yl)oxy)-4-(2-((8-chloro-2,3,4,5-tetrahydro-1H-benzo[d]azepin-7-yl)amino)pyrimidin-5-yl)benzonitrile]
IC50 [4]: < 10 nM

CC(C)c1nn(C2CC3(C2)CN(C(=O)OC(C)(C)C)C3)cc1Nc1ncc(-c2ccc(Cl)c(O[C@@H](C)Cn3cnnn3)c2)cn1 [Example 931, tert-butyl (S)-6-(4-((5-(3-((1-(1H-tetrazol-1-yl)propan-2-yl)oxy)-4-chlorophenyl)pyrimidin-2-yl)amino)-3-isopropyl-1H-pyrazol-1-yl)-2-azaspiro[3.3]heptane-2-carboxylate]
IC50 [3]: 10 to 100 nM

C[C@@H](Cn1cnnn1)Oc1cc(-c2cnc(Nc3cn(C4CCC(CC(=O)O)CC4)nc3C(F)(F)F)nc2)ccc1Cl (stereo partly drawn) [Example 851, (S)-2-(4-(4-((5-(3-((1-(1H-tetrazol-1-yl)propan-2-yl)oxy)-4-chlorophenyl)pyrimidin-2-yl)amino)-3-(trifluoromethyl)-1H-pyrazol-1-yl)cyclohexyl)acetic acid]
IC50 [2]: ≥ 100 nM

C[C@@H](Cn1cnnn1)Oc1cc(-c2cnc(Nc3cn(C4CCN(Cc5cnn(C)c5)CC4)nc3C(F)(F)F)nc2)ccc1Cl [Example 567, (S)-5-(3-((1-(1H-tetrazol-1-yl)propan-2-yl)oxy)-4-chlorophenyl)-N-(1-(1-((1-methyl-1H-pyrazol-4-yl)methyl)piperidin-4-yl)-3-(trifluoromethyl)-1H-pyrazol-4-yl)pyrimidin-2-amine]
IC50 [4]: < 10 nM

C[C@@H](Cn1cnnn1)Oc1cc(-c2cnc(Nc3cc(N4CCC(N5CCOCC5)CC4)ncc3OC(F)(F)F)nc2)ccc1C#N [Example 543, (S)-2-((1-(1H-tetrazol-1-yl)propan-2-yl)oxy)-4-(2-((2-(4-morpholinopiperidin-1-yl)-5-(trifluoromethoxy)pyridin-4-yl)amino)pyrimidin-5-yl)benzonitrile]
IC50 [4]: < 10 nM

C[C@@H](CN1CCCC1=O)Oc1cc(-c2cnc(Nc3cn([C@H]4CC[C@H](N5CCOCC5)CC4)nc3C(F)(F)F)nc2)ccc1C#N [Example 900, 4-(2-((1-(trans-4-morpholinocyclohexyl)-3-(trifluoromethyl)-1H-pyrazol-4-yl)amino)pyrimidin-5-yl)-2-(((S)-1-(2-oxopyrrolidin-1-yl)propan-2-yl)oxy)benzonitrile]
IC50 [3]: 10 to 100 nM

CNC(=O)C1CN(c2ccc(OC)c(Nc3ncc(-c4ccc(Cl)c(O[C@@H](C)Cn5cnnn5)c4)cn3)c2)C1 [Example 679, (S)-1-(3-((5-(3-((1-(1H-tetrazol-1-yl)propan-2-yl)oxy)-4-chlorophenyl)pyrimidin-2-yl)amino)-4-methoxyphenyl)-N-methylazetidine-3-carboxamide]
IC50 [1]: < 10 nM

COCCN1CCc2cc(OC)c(Nc3ncc(-c4ccc(Cl)c(O[C@@H](C)Cn5cnnn5)c4)cn3)cc2C1 [Example 518, (S)-N-(5-(3-((1-(1H-tetrazol-1-yl)propan-2-yl)oxy)-4-chlorophenyl)pyrimidin-2-yl)-6-methoxy-2-(2-methoxyethyl)-1,2,3,4-tetrahydroisoquinolin-7-amine]
IC50 [4]: < 10 nM

[2H]C1(N2CC3(CC(n4cc(Nc5ncc(-c6ccc(Cl)c(O[C@@H](C)Cn7cnnn7)c6)cn5)c(OCC(F)(F)F)n4)C3)C2)CCOCC1 [Example 944, 5-(4-chloro-3-{[(2S)-1-(1H-tetrazol-1-yl)propan-2-yl]oxy}phenyl)-N-(1-{2-[(4-^2H)tetrahydro-2H-pyran-4-yl]-2-azaspiro[3.3]heptan-6-yl}-3-(2,2,2-trifluoroethoxy)-1H-pyrazol-4-yl)pyrimidin-2-amine]
IC50 [3]: < 10 nM

CC(C)N1CC2(CC(n3cc(Nc4ncc(-c5ccc(Cl)c(O[C@@H](C)Cn6cnnn6)c5)cn4)c(OCC(F)(F)F)n3)C2)C1 [Example 815, (S)-5-(3-((1-(1H-tetrazol-1-yl)propan-2-yl)oxy)-4-chlorophenyl)-N-(1-(2-isopropyl-2-azaspiro[3.3]heptan-6-yl)-3-(2,2,2-trifluoroethoxy)-1H-pyrazol-4-yl)pyrimidin-2-amine]
IC50 [2]: < 10 nM

CCn1cc(Nc2ncc(-c3ccc(Cl)c(O[C@@H](C)Cn4cnnn4)c3)cn2)c(N2CCCC2)n1 [Example 669, (S)-5-(3-((1-(1H-tetrazol-1-yl)propan-2-yl)oxy)-4-chlorophenyl)-N-(1-ethyl-3-(pyrrolidin-1-yl)-1H-pyrazol-4-yl)pyrimidin-2-amine]
IC50 [1]: 10 to 100 nM

COc1cc2c(cc1Nc1ncc(-c3ccc(Cl)c(O[C@@H](C)Cn4cnnn4)c3)cn1)CN(C1CCOCC1)CC2 [Example 502, (S)-N-(5-(3-((1-(1H-tetrazol-1-yl)propan-2-yl)oxy)-4-chlorophenyl)pyrimidin-2-yl)-6-methoxy-2-(tetrahydro-2H-pyran-4-yl)-1,2,3,4-tetrahydroisoquinolin-7-amine]
IC50 [4]: < 10 nM

C[C@@H](Cn1cnnn1)Oc1cc(-c2cnc(Nc3cn(C4CCN(C5CCOCC5)CC4)nc3C(F)F)nc2)ccc1Cl [Example 769, (S)-5-(3-((1-(1H-tetrazol-1-yl)propan-2-yl)oxy)-4-chlorophenyl)-N-(3-(difluoromethyl)-1-(1-(tetrahydro-2H-pyran-4-yl)piperidin-4-yl)-1H-pyrazol-4-yl)pyrimidin-2-amine]
IC50 [2]: < 10 nM

C[C@@H](Cn1cnnn1)Oc1cc(-c2cnc(Nc3cn([C@H]4CC[C@H](N5CC(O)(C(F)(F)F)C5)CC4)nc3C(F)(F)F)nc2)ccc1Cl [Example 857, 1-(trans-4-(4-((5-(3-(((S)-1-(1H-tetrazol-1-yl)propan-2-yl)oxy)-4-chlorophenyl)pyrimidin-2-yl)amino)-3-(trifluoromethyl)-1H-pyrazol-1-yl)cyclohexyl)-3-(trifluoromethyl)azetidin-3-ol]
IC50 [2]: < 10 nM

COc1nc(N2CCCN(C3CCOCC3)CC2)ccc1Nc1ncc(-c2ccc(Cl)c(O[C@@H](C)Cn3cnnn3)c2)cn1 [Example 667, (S)-5-(3-((1-(1H-tetrazol-1-yl)propan-2-yl)oxy)-4-chlorophenyl)-N-(2-methoxy-6-(4-(tetrahydro-2H-pyran-4-yl)-1,4-diazepan-1-yl)pyridin-3-yl)pyrimidin-2-amine]
IC50 [1]: < 10 nM

C[C@@H](Cn1cnnn1)Oc1cc(-c2cnc(Nc3cn(CCCCO)nc3OCC(F)(F)F)nc2)ccc1Cl [Example 783, (S)-4-(4-((5-(3-((1-(1H-tetrazol-1-yl)propan-2-yl)oxy)-4-chlorophenyl)pyrimidin-2-yl)amino)-3-(2,2,2-trifluoroethoxy)-1H-pyrazol-1-yl)butan-1-ol]
IC50 [2]: < 10 nM

CO[C@H]1CC[C@@H](N2CC3(CC(n4cc(Nc5ncc(-c6ccc(Cl)c(O[C@@H](C)Cn7cnnn7)c6)cn5)c(C(C)C)n4)C3)C2)CC1 [Example 1011, 5-(3-(((S)-1-(1H-tetrazol-1-yl)propan-2-yl)oxy)-4-chlorophenyl)-N-(3-isopropyl-1-(2-(cis-4-methoxycyclohexyl)-2-azaspiro[3.3]heptan-6-yl)-1H-pyrazol-4-yl)pyrimidin-2-amine]
IC50 [3]: < 10 nM
